Literature values in patent US20240307482A1, “TOPICAL COMPOSITIONS” (Illustris Pharmaceuticals, Inc., priority 2019, published 2024).

Test system: wrinkles
Conditions: formulations with 10% concentration acetyl hexapeptide; after 30 days of trial use

## acetyl hexapeptide-3
  reduce the depth of wrinkles: up to 30%
